Counter-ions that a name gives are not always drawn. Like-named read-outs stand apart in the source and are kept apart here.
How the values were obtained:
[1] = Acidic cleavage of terazosin in aqueous acid; format: physicochemical; details: aqueous medium, cleaves into 4-amino-6,7-dimethoxy-2-piperazinylquinazoline and 2-furoic acid
Experimental: In the particular case of terazosin, when the parent compound or its hydrochloride salt is in contact for extended periods with aqueous acid, it undergoes an undesirable side reaction which cleaves the compound into its constituent parts: [drawing 2]
Moreover, if the hydrochloride salt is prepared by lyophilization of the reaction mixture of terazosin free base and hydrochloric acid, unless care is taken to remove any excess acid present in the isolated salt, the solid may also contain small amounts of acid which causes degradative cleavage over time.

[2] = free base form; cited from earlier work
[3] = Solubility/dissolution of forms of terazosin monohydrochloride in distilled water (shaken, 0.45 µm filtered, UV at 254 nm); format: physicochemical; details: for solubility at 0.5 min / solubility at 1 min / solubility at 2 min / solubility at 4 min / Solubility of Various Forms of Terazosin Monohydrochloride: distilled water, 2 g in 5 mL; for solubility at 0.5 min / solubility at 1 min / solubility at 2 min / solubility at 4 min: read-out: Solubility of Various Forms of Terazosin Monohydrochloride; for dissolution in water (in words): qualitative
Experimental: The data in Table 1 were collected, for each data point, by weighing 2 g samples of terazosin monohydrochloride dihydrate and each of Forms I, II and II of the non-solvated monohydrochloride separately into 50 mL centrifuge tubes. Five mL of distilled water were added to each tube and the tubes shaken for the times indicated and then rapidly filtered through a 0.45 μu nylon membrane filter. The resulting flitrates were serially diluted with water 2 to […], 5 to 50, 5 to 50 and 5 to 100 mL and the ultraviolet absorption maximum at 254 nm measured. The concentrations of the dissolved terazosin were then calculated from the absorption data using dam from a series of standard concentrations.

In the case of `COc1cc2nc(N3CCN(C(=O)C4CCCO4)CC3)nc(N)c2cc1OC` (stereo not shown) [terazosin, 1-(4-amino-6,7-dimethoxy-2-quinazolinyl)-4-(tetrahydro-2furoyl)piperazine], the “acidic cleavage (stability)” value [1] is given as “occurs rapidly in aqueous medium” and the “solubility for oral administration (in words)” value [2] is given as “does not possess the requisite solubility for convenient oral administration”.
`COc1cc2nc(N3CCN(C(=O)C4CCCO4)CC3)nc(N)c2cc1OC.Cl.O.O` (stereo not shown) [Dihydrate, 1-(4-Amino-6,7-dimethoxy-2-quinazolinyl)-4-(tetrahydro-2-furoyl)piperazine monohydrochloride dihydrate] gave a solubility at 0.5 min ([3]; 0.5 minutes) of 29 mg/mL, a solubility at 1 min ([3]; 1 minute) of 30 mg/mL and a solubility at 2 min ([3]; 2 minutes) of 27 mg/mL. For the same compound, the solubility at 4 min ([3]; 4 minutes) was 26 mg/mL and the solubility ([3]; water, rapidly reached, read-out: limit of solubility) was ~30 mg/mL.
Compound `COc1cc2nc(N3CCN(C(=O)C4CCCO4)CC3)nc(N)c2cc1OC` (stereo not shown) [Form I, 1-(4-amino-6,7-dimethoxy-2-quinazolinyl)-4-(tetrahydro-2-furoyl)piperazinemonohydrochloride] has a solubility at 0.5 min ([3]; water, 0.5 minutes) of 273 mg/mL, a solubility at 1 min ([3]; water, 1 minute) of 283 mg/mL and a solubility at 2 min ([3]; water, 2 minutes) of 289 mg/mL. It also gave a solubility at 4 min ([3]; water, 4 minutes) of 276 mg/mL.
For `COc1cc2nc(N3CCN(C(=O)C4CCCO4)CC3)nc(N)c2cc1OC` (stereo not shown) [Form III, 1-(4-amino-6,7-dimethoxy-2-quinazolinyl)-4-(tetrahydro-2-furoyl)piperazinemonohydrochloride], the “Solubility of Various Forms of Terazosin Monohydrochloride” value ([3]; 0.5 minutes) was 235 mg/mL, the “Solubility of Various Forms of Terazosin Monohydrochloride” value ([3]; 1 minute, 1 min) was 237 mg/mL and the “Solubility of Various Forms of Terazosin Monohydrochloride” value ([3]; 2 minutes) was 269 mg/mL. For the same compound, the “Solubility of Various Forms of Terazosin Monohydrochloride” value ([3]; 4 minutes) was 261 mg/mL, the “solubility rapidly achieved relative to the dihydrate limit (about 30 mg/mL)” value ([3]; water, multiple of dihydrate solubility) was “about ten times” and the “dissolution in water (in words)” value ([3]; water) was “rapidly dissolves in water”. For the same compound, the “dissolution in water (in words)” value ([3]; water, listed as terazosin monohydrochloride Form III) was “dissolves in water much more rapidly than the dihydrate form”.
In the case of `COc1cc2nc(N3CCN(C(=O)C4CCCO4)CC3)nc(N)c2cc1OC` (stereo not shown) [Form II, 1-(4-amino-6,7-dimethoxy-2-quinazolinyl)-4-(tetrahydro-2-furoyl)piperazinemonohydrochloride], the “Solubility of Various Forms of Terazosin Monohydrochloride” value ([3]; 0.5 minutes) is reported as 280 mg/mL, the “Solubility of Various Forms of Terazosin Monohydrochloride” value ([3]; 1 minute, 1 min) is reported as 253 mg/mL and the “Solubility of Various Forms of Terazosin Monohydrochloride” value ([3]; 2 minutes) is reported as 311 mg/mL. The “Solubility of Various Forms of Terazosin Monohydrochloride” value ([3]; 4 minutes) was 323 mg/mL.

Source: patent publication US5412095A, “Terazosin monohydrochloride and processes and intermediate for its production” (Abbott Laboratories, priority 1994, dated 1995)
